Publication PMC6440935, “Characterization and phase I study of CLR457, an orally bioavailable pan-class I PI3-kinase inhibitor” (Investigational New Drugs, 2018)
Read-outs that look alike come from different tables or passages of the source.

Details: drug-related

C[C@H]1OC(=O)N(c2cc(-c3cnc(N)nc3C(F)(F)F)nc(N3CCOCC3)n2)[C@H]1CO [CLR457]
Decreased neutrophil count, All Grade (40 mg, N = 5): 0 n (%)
Decreased neutrophil count, Grade ≥ 3 (40 mg, N = 5): 0 n (%)
Dehydration, All Grade (40 mg, N = 5): 0 n (%)
Dehydration, Grade ≥ 3 (40 mg, N = 5): 0 n (%)
Diarrhea, All Grade (40 mg, N = 5): 3 (60.0) n (%)
Diarrhea, Grade ≥ 3 (40 mg, N = 5): 0 n (%)
Dry mouth, All Grade (40 mg, N = 5): 0 n (%)
Dry mouth, Grade ≥ 3 (40 mg, N = 5): 0 n (%)
Dry skin, All Grade (40 mg, N = 5): 0 n (%)
Dry skin, Grade ≥ 3 (40 mg, N = 5): 0 n (%)
Dysgeusia, All Grade (40 mg, N = 5): 1 (20.0) n (%)
Dysgeusia, Grade ≥ 3 (40 mg, N = 5): 0 n (%)
Fatigue, All Grade (40 mg, N = 5): 1 (20.0) n (%)
Fatigue, Grade ≥ 3 (40 mg, N = 5): 0 n (%)
Headache, All Grade (40 mg, N = 5): 0 n (%)
Headache, Grade ≥ 3 (40 mg, N = 5): 0 n (%)
Hyperglycemia, All Grade (40 mg, N = 5): 2 (40.0) n (%)
Hyperglycemia, Grade ≥ 3 (40 mg, N = 5): 0 n (%)
Hypomagnesaemia, All Grade (40 mg, N = 5): 0 n (%)
Hypomagnesaemia, Grade ≥ 3 (40 mg, N = 5): 0 n (%)
Maculo-papular rash, All Grade (40 mg, N = 5): 2 (40.0) n (%)
Maculo-papular rash, Grade ≥ 3 (40 mg, N = 5): 2 (40.0) n (%)
Nausea, All Grade (40 mg, N = 5): 2 (40.0) n (%)
Nausea, Grade ≥ 3 (40 mg, N = 5): 0 n (%)
Pneumonitis, All Grade (40 mg, N = 5): 0 n (%)
Pneumonitis, Grade ≥ 3 (40 mg, N = 5): 0 n (%)
Pruritus, All Grade (40 mg, N = 5): 1 (20.0) n (%)
Pruritus, Grade ≥ 3 (40 mg, N = 5): 0 n (%)
Pyrexia, All Grade (40 mg, N = 5): 0 n (%)
Pyrexia, Grade ≥ 3 (40 mg, N = 5): 0 n (%)
Rash, All Grade (40 mg, N = 5): 0 n (%)
Rash, Grade ≥ 3 (40 mg, N = 5): 0 n (%)
Stomatitis, All Grade (40 mg, N = 5): 3 (60.0) n (%)
Stomatitis, Grade ≥ 3 (40 mg, N = 5): 0 n (%)
Vomiting, All Grade (40 mg, N = 5): 1 (20.0) n (%)
Vomiting, Grade ≥ 3 (40 mg, N = 5): 0 n (%)
Weight decreased, All Grade (40 mg, N = 5): 1 (20.0) n (%)
Weight decreased, Grade ≥ 3 (40 mg, N = 5): 0 n (%)
Asthenia, Grade ≥ 3 (70 mg, N = 6): 0 n (%)
Chills, All Grade (70 mg, N = 6): 0 n (%)
Chills, Grade ≥ 3 (70 mg, N = 6): 0 n (%)
Colitis, All Grade (70 mg, N = 6): 1 (16.7) n (%)
Colitis, Grade ≥ 3 (70 mg, N = 6): 1 (16.7) n (%)
Cough, All Grade (70 mg, N = 6): 0 n (%)
Cough, Grade ≥ 3 (70 mg, N = 6): 0 n (%)
Decreased appetite, All Grade (70 mg, N = 6): 2 (33.3) n (%)
Decreased appetite, Grade ≥ 3 (70 mg, N = 6): 0 n (%)
Decreased neutrophil count, All Grade (70 mg, N = 6): 1 (16.7) n (%)
Decreased neutrophil count, Grade ≥ 3 (70 mg, N = 6): 0 n (%)
Dehydration, All Grade (70 mg, N = 6): 1 (16.7) n (%)
Dehydration, Grade ≥ 3 (70 mg, N = 6): 1 (16.7) n (%)
Diarrhea, All Grade (70 mg, N = 6): 4 (66.7) n (%)
Diarrhea, Grade ≥ 3 (70 mg, N = 6): 1 (16.7) n (%)
Dry mouth, All Grade (70 mg, N = 6): 1 (16.7) n (%)
Dry mouth, Grade ≥ 3 (70 mg, N = 6): 0 n (%)
Dry skin, All Grade (70 mg, N = 6): 1 (16.7) n (%)
Dry skin, Grade ≥ 3 (70 mg, N = 6): 0 n (%)
Dysgeusia, All Grade (70 mg, N = 6): 0 n (%)
Dysgeusia, Grade ≥ 3 (70 mg, N = 6): 0 n (%)
Fatigue, All Grade (70 mg, N = 6): 1 (16.7) n (%)
Fatigue, Grade ≥ 3 (70 mg, N = 6): 0 n (%)
Headache, All Grade (70 mg, N = 6): 1 (16.7) n (%)
Headache, Grade ≥ 3 (70 mg, N = 6): 0 n (%)
Hyperglycemia, All Grade (70 mg, N = 6): 1 (16.7) n (%)
Hyperglycemia, Grade ≥ 3 (70 mg, N = 6): 0 n (%)
Hypomagnesaemia, All Grade (70 mg, N = 6): 1 (16.7) n (%)
Hypomagnesaemia, Grade ≥ 3 (70 mg, N = 6): 0 n (%)
Maculo-papular rash, All Grade (70 mg, N = 6): 2 (33.3) n (%)
Maculo-papular rash, Grade ≥ 3 (70 mg, N = 6): 1 (16.7) n (%)
Nausea, All Grade (70 mg, N = 6): 2 (33.3) n (%)
Nausea, Grade ≥ 3 (70 mg, N = 6): 0 n (%)
Pneumonitis, All Grade (70 mg, N = 6): 0 n (%)
Pneumonitis, Grade ≥ 3 (70 mg, N = 6): 0 n (%)
Pruritus, All Grade (70 mg, N = 6): 1 (16.7) n (%)
Pruritus, Grade ≥ 3 (70 mg, N = 6): 0 n (%)
Pyrexia, All Grade (70 mg, N = 6): 1 (16.7) n (%)
Pyrexia, Grade ≥ 3 (70 mg, N = 6): 0 n (%)
Rash, All Grade (70 mg, N = 6): 2 (33.3) n (%)
Rash, Grade ≥ 3 (70 mg, N = 6): 1 (16.7) n (%)
Stomatitis, All Grade (70 mg, N = 6): 2 (33.3) n (%)
Stomatitis, Grade ≥ 3 (70 mg, N = 6): 0 n (%)
Vomiting, All Grade (70 mg, N = 6): 2 (33.3) n (%)
Vomiting, Grade ≥ 3 (70 mg, N = 6): 0 n (%)
Weight decreased, All Grade (70 mg, N = 6): 1 (16.7) n (%)
Weight decreased, Grade ≥ 3 (70 mg, N = 6): 0 n (%)
Asthenia, Grade ≥ 3 (100 mg, N = 11): 0 n (%)
Chills, All Grade (100 mg, N = 11): 2 (18.2) n (%)
Chills, Grade ≥ 3 (100 mg, N = 11): 0 n (%)
Colitis, All Grade (100 mg, N = 11): 1 (9.1) n (%)
Colitis, Grade ≥ 3 (100 mg, N = 11): 1 (9.1) n (%)
Cough, All Grade (100 mg, N = 11): 2 (18.2) n (%)
Cough, Grade ≥ 3 (100 mg, N = 11): 0 n (%)
Decreased appetite, All Grade (100 mg, N = 11): 4 (36.4) n (%)
Decreased appetite, Grade ≥ 3 (100 mg, N = 11): 0 n (%)
Decreased neutrophil count, All Grade (100 mg, N = 11): 1 (9.1) n (%)
Decreased neutrophil count, Grade ≥ 3 (100 mg, N = 11): 1 (9.1) n (%)
